Test results published in patent US5538876A, “Stabilization of carboxyl esterase” (Gist-brocades, N.V., priority 1989, dated 1996).

Key:
carboxyl esterase [1] = target: carboxyl esterase (Bacillus subtilis, UniProt Q59248); assay: Inactivation of carboxyl esterase by compounds; assay type: biochemical, Bacillus subtilis Thai 1-8; conditions: reaction conditions, commercially interesting concentrations
carboxyl esterase [2] = target: T1, carboxyl esterase (Bacillus subtilis, UniProt Q59248); assay: Effect of chemical modifier on carboxyl esterase stability; assay type: biochemical; conditions: used as chemical group to modify the enzyme
T1 construct: document's preparation is from B. subtilis 1-85/pNAPT-7 (cloned Thai I-8 gene)
T1 sequence (Q59248 1-300): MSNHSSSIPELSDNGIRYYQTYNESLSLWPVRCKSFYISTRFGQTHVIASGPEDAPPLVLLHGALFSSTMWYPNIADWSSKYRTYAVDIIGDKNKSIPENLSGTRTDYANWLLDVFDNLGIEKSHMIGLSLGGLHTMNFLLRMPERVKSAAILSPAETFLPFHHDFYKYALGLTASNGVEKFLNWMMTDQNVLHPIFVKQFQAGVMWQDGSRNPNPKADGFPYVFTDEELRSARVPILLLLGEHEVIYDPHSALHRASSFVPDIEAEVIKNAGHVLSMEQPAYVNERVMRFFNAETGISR

With `Oc1ccc2ccccc2c1` [2-naphthol] the “inactivation of carboxyl esterase by the compound (in words)” value (from here on “inactivation of carboxyl esterase”) (carboxyl esterase [1]) was “inactivate the enzyme”.

`O=C(O)COc1ccc2ccccc2c1` [2-naphthoxy acetic acid] was tested, and the “inactivation of carboxyl esterase” value (carboxyl esterase [1]) was “inactivate the enzyme”.

In the case of `O=Cc1ccccc1` [Benzaldehyde], the “effect on enzyme stability (in words)” value (carboxyl esterase [2]) is reported as “does not have a positive effect on enzyme stability”.

In the case of `CC(Oc1ccc(Oc2ccc(Cl)cc2Cl)cc1)C(=O)O` (stereo not drawn) [diclofop], the “inactivation of carboxyl esterase” value (carboxyl esterase [1]) is reported as “will inactivate the enzyme”.

For `CC(C)Cc1ccc(C(C)C(=O)O)cc1` (stereo not drawn) [ibuprofen, reference compound], the “inactivation of carboxyl esterase” value (carboxyl esterase [1]) was “inactivate the enzyme”.

For `Oc1ccccc1` [phenol], the “inactivation of carboxyl esterase” value (carboxyl esterase [1]) was “inactivate the enzyme”.
